Experimental data from article PMC12346692, “SUL-150 Limits Vascular Remodeling and Ventricular Failure in Pulmonary Arterial Hypertension” (International Journal of Molecular Sciences, 2025).

Test system: PGC1α, mtTFA, PINK1, Parkin
Experiment: Immunoblotting of right ventricle for mitogenesis and mitophagy markers
Format: in vivo, rat
Conditions: PAH rats, ~6 mg·kg^−1·day^−1 i.p. minipump, 28 days; result in words
Method: Protein lysates were prepared from the right ventricle using RIPA buffer (ThermoFisher, Waltham, MA, USA) and supplemented with 0.5% proteinase inhibitor cocktail (Sigma-Aldrich, St. Louis, MO, USA) and 0.5% Halt™ phosphatase inhibitor (ThermoFisher, Waltham, MA, USA). […] Twenty micrograms of total protein per sample was loaded on mini-PROTEAN precast gradient gels (4–15% denaturing SDS–polyacrylamide gel; Bio-Rad, Hercules, CA, USA), separated by gel electrophoresis, and blotted onto nitrocellulose membrane using the Trans-Blot turbo system (Bio-Rad, Hercules, CA, USA) according to standard protocols. Blots were blocked with 5% bovine serum albumin in 20 mM Tris-HCl (pH 7.4) at room temperature for 30 min and incubated at 4 °C overnight with primary antibodies to mtTFA (sc-166965, Santa Cruz Biotechnology, Dallas, TX, USA), PGC1α (NBP1-04676, Bio-Techne, Abingdon, UK), PINK1 (BC100-494, Bio-Techne, Abingdon, UK), Parkin (sc-32282, Santa Cruz Biotechnology, Dallas, TX, USA), or Tubulin (Sigma-Aldrich, St. Louis, MO, USA), all at a dilution of 1:500. Alkaline phosphatase-conjugated secondary antibodies and NBT/BCIP (Bio-Rad, VA, USA) were used for detection. Densitometric analysis was performed using Totallab 120 (Nonlinear Dynamics, Newcastle upon Tyne, UK).

Cc1c(C)c2c(c(C)c1O)CC[C@](C)(C(=O)N1CCNCC1)O2 [SUL-150, (R)-(6-hydroxy-2,5,7,8-tetramethylchroman-2-yl)(piperazin-1-yl)methanone] was tested, and the “right ventricular protein expression of PGC1α and mtTFA” value was “did not alter” and the “right ventricular protein expression of PINK1 and Parkin” value was “maintained the expression”.
